In patent US20090170923A1, “HCV INHIBITORS” (priority 2004, published 2009):
pIC50: −log10 of the molar value. Structures can show the parent of a compound that is named as a salt.

Tested on: HCV genotype 1b strain Con1 replicon (ET replicon line, Huh7 cells)
Assay: HCV ET replicon luciferase assay
Type: cell-based
Conditions: Hepatitis C virus, Huh-7; Huh7 cells stably transfected with HCV genotype 1b Con1 replicon; firefly luciferase readout; 72 hours incubation
Protocol: Compounds of the current invention are believed useful in the treatment and/or prophylaxis of conditions and diseases associated with HcV infection. Activity mediated through HCV was determined using an ET replicon line.
The Materials used include a Medium comprised of DMEM (IX liquid, high glucose); Invitrogen cat #11965-092; 100× Penicillin/Streptomycin solution (10,000 Units/mL); Invitrogen cat #15140-122; 100× Non-essential amino acid solution (10 mM); Invitrogen cat #11140-050; Fetal bovine serum; JRH Biosciences cat #12107-500M; Geneticin (50 mg/mL); Invitrogen cat #10131-035
The Luciferase assay reagents include Steady-Glo Luciferase assay system, cat # E2550 (Promega)
The ET replicon line (see Lohmann et al. (1999), Replication of subgenomic hepatitis C virus RNAs in a hepatoma cell line. Science 285: 110-113; Krieger et al. (2001), Enhancement of hepatitis C virus RNA replication by cell culture-adaptive mutations. J. Virol. 75: 4614-4624; and Vrolijk et al. (2003), A replicon-based bioassay for the measurement of interferons in patients with chronic hepatitis C. J. Virol. Meth. 110: 201-209, each herein incorporated by reference with regard to the ET replicon line), includes Huh7 cells stably transfected with HCV genotype 1b strain Con1 replicon. This replicon expresses the firefly luciferase, has the coding region for ubiquitin inserted upstream of the neomycin gene, and carries three cell culture-adaptive mutations that enhance RNA replication cooperatively (E1202G, T1280I, and S2197P). The ET cell line was obtained under licence from: ReBLikon GmbH, Nach dem alten Schloss 22, 55239 Gau-Odernheim, Germany. […]
Cells are grown to approximately 80% confluency and trypsinised as described above. Cells are counted in a Levy Hemocytometer and diluted to 20,000 cells/ml in DMEM containing 10% FBS, 1× penicillin/streptomycin, 1×NEAAs. […]
245 μL cell suspension is added to the first 11 columns of the daughter plates prepared as above using a Multidrop dispenser (Titertek). […] The twelfth column of each plate is used to generate background readings for the assay. […]

Point of comparison: `C[C@@H](N[C@@H]1CCCc2c1[nH]c1ccc(Br)cc21)c1ccccc1` [Example 31, (1R)-6-bromo-N-[(1R)-1-phenylethyl]-2,3,4,9-tetrahydro-1H-carbazol-1-amine Hydrochloride Salt], pIC50 7.89. Against it:
- Brc1ccc2[nH]c3c(c2c1)CCC[C@H]3NC1Cc2ccccc2C1 [Example 27, (1R)-6-Bromo-N-(2,3-dihydro-1H-inden-2-yl)-2,3,4,9-tetrahydro-1H-carbazol-1-amine hydrochloride salt] — 0.62 log units lower, 7.27
- C[C@H](N[C@@H]1CCCc2c1[nH]c1ccc(Br)cc21)c1ccccc1 [Example 36, (1R)-6-Bromo-N-[(1S)-1-phenylethyl]-2,3,4,9-tetrahydro-1H-carbazol-1-amine Hydrochloride Salt] — 0.21 log units higher, 8.10
